Like-named read-outs stand apart in the source and are kept apart here.
Assays:
IMP-1 = IMP-1 (Serratia marcescens, UniProt P52699); test: biochemical; type: biochemical
How it was run: (§1)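 Two-hour, 25° C incubation of enzyme with inhibitor and CCF2-FA (7-hydroxycoumarin–cephalosporin–fluorescein). Fluorescence read-out; IC50 via 4-parameter fit.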

NDM-1 = NDM-1 (Klebsiella pneumoniae, UniProt C7C422); test: biochemical; type: biochemical; details: CCF2-FA substrate, 2 hours at 25° C; read-out: NDM-1 IC50
How it was run: as §1

VIM-1 = VIM-1 (Pseudomonas aeruginosa (strain ATCC 15692 / DSM 22644 / CIP 104116 / JCM 14847 / LMG 12228 / 1C / PRS 101 / PAO1), UniProt A0A0F7KYQ8); test: biochemical; details: CCF2-FA substrate, 2 hours at 25° C
How it was run: as §1

[1] = test system: Escherichia coli expressing NDM-1 (CLB30005, CLB30016); type: cell-based; details: with imipenem 1 μg/ml, 95% inhibition of bacterial growth; for Escherichia coli MITC95: NDM-1 (CLB30016)
How it was run: (§2)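 Colonies from overnight 35 °C blood-agar cultures were suspended in saline, diluted 1:100 into 1.1× CAMHB and exposed to test compound with or without imipenem at 1 μg/ml. After 22–24 h at 35 °C, absorbance was read to find the concentration restoring imipenem susceptibility.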

[2] = test system: Klebsiella pneumoniae expressing VIM-1 (IHMA599644); type: cell-based; details: with imipenem 1 μg/ml, 95% inhibition of bacterial growth; for Klebsiella pneumoniae MITC95: VIM-1 (IHMA599644)
How it was run: as §2

[3] = test system: Serratia marcescens expressing IMP-1 (CL5741); type: cell-based; details: with imipenem 1 μg/ml, 95% inhibition of bacterial growth; for Serratia marcescens MITC95: IMP-1 (CL5741)
How it was run: as §2

[4] = test system: P. aeruginosa expressing IMP-1, efflux+ (MB9798); type: cell-based, Pseudomonas aeruginosa; details: for P. aeruginosa expressing IMP-1, efflux+ (MB9798) MITC95: imipenem at 2 μg/mL, in the presence of a class A, C, D serine β-lactamase inhibitor closely related to relebactam; for Efflux ratio: ratio MITC95 PA_9798/MITC95 PA_9799
Text: (§3) The strain background is Pseudomonas aeruginosa PAO1.

[5] = test system: P. aeruginosa expressing IMP-1, efflux− (MB9799); test: Efflux: concentration of MBL inhibitor which restores susceptibility to imipenem; type: cell-based, Pseudomonas aeruginosa; details: imipenem at 2 μg/mL, in the presence of a class A, C, D serine β-lactamase inhibitor closely related to relebactam
Text: as §3

[6] = CCF2-FA substrate, 2 hours at 25° C, read-out: IMP-1 IC50

Sequence of IMP-1 (P52699 whole entry, looked up, species assumed): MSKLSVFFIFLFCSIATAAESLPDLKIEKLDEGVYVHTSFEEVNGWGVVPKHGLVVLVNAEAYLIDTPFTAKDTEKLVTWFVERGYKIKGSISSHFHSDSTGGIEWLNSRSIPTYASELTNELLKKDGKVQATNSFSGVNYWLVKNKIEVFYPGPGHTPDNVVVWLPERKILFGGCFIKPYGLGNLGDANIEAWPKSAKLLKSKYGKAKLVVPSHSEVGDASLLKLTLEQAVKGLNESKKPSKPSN
Sequence of NDM-1 (C7C422 whole entry, looked up, species assumed): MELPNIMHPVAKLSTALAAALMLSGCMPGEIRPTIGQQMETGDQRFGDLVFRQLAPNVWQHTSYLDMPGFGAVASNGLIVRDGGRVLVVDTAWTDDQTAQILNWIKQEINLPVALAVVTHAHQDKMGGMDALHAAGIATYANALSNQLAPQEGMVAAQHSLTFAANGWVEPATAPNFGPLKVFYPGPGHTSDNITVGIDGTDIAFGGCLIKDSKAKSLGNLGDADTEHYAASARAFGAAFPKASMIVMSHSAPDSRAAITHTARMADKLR

| SMILES | IC50 (IMP-1; [6]) | IC50 (NDM-1) | IC50 (VIM-1) | Escherichia coli expressing NDM-1 (CLB30016) MITC95 [1] | Klebsiella pneumoniae expressing VIM-1 (IHMA599644) MITC95 [2] | Serratia marcescens expressing IMP-1 (CL5741) MITC95 [3] | P. aeruginosa expressing IMP-1, efflux+ (MB9798) MITC95 [4] | Efflux ratio [4] | P. aeruginosa expressing IMP-1, efflux− (MB9799) MITC95 [5] | Escherichia coli MITC95 [1] | Klebsiella pneumoniae MITC95 [2] | Serratia marcescens MITC95 [3] | IC50 (IMP-1) |
| --- | --- | --- | --- | --- | --- | --- | --- | --- | --- | --- | --- | --- | --- |
| NS(=O)(=O)c1c(S(=O)(=O)C2CNC2)ccc(-c2ccc3nccnc3c2)c1-c1nnn[nH]1.O=C(O)C(F)(F)F [Example 117, 3-((4-(quinoxalin-6-yl)-2-sulfamoyl-3-(1H-tetrazol-5-yl)phenyl)sulfonyl)azetidin-1-ium 2,2,2-trifluoroacetate] | 1.41 nM | 0.93 nM | 0.431 nM | 6.25 µM | 6.25 µM | 3.125 µM | 25 µM | 15.99 | 1.563 µM |  |  |  |  |
| Nc1nc2c(-c3ccc(S(=O)(=O)C[C@@H](N)CO)c(S(N)(=O)=O)c3-c3nn[nH]n3)cccc2[nH]1 [Example 274, 3-(2-amino-1H-benzo[d]imidazol-4-yl)-6-((S)-2-amino-3-hydroxypropylsulfonyl)-2-(2H-tetrazol-5-yl)benzenesulfonamide] | 0.431 nM | 0.113 nM | 0.206 nM |  |  |  | 0.7813 µM | 1.00 | 0.7813 µM | 0.7813 µM | 1.563 µM | 1.563 µM |  |
| Nc1ccc2c(-c3ccc(S(=O)(=O)C4CNC4)c(S(N)(=O)=O)c3-c3nnn[nH]3)ccnc2n1 [Example 27, 3-(7-amino-1,8-naphthyridin-4-yl)-6-(azetidin-3-ylsulfonyl)-2-(1H-tetrazol-5-yl)benzenesulfonamide] | 1.75 nM | 0.185 nM | 0.33 nM | 6.25 µM | 3.125 µM | 3.125 µM | 6.25 µM | 4.00 | 1.563 µM |  |  |  |  |
| Cn1cc(C(=O)C(F)(F)F)c2c(-c3ccc(S(=O)(=O)C4CNC4)c(S(N)(=O)=O)c3-c3nnn[nH]3)cccc21 [Example 229, 6-(azetidin-3-ylsulfonyl)-3-(1-methyl-3-(2,2,2-trifluoroacetyl)-1H-indol-4-yl)-2-(1H-tetrazol-5-yl)benzenesulfonamide] |  | 0.139 nM | 0.474 nM | 6.25 µM | 12.5 µM | 6.25 µM | 25 µM | 4.00 | 6.25 µM |  |  |  | 1.74 nM |
| NS(=O)(=O)c1c(S(=O)(=O)C2CNC2)ccc(-c2cccnc2N2CCOCC2)c1-c1nn[nH]n1 [Example 220, 6-(azetidin-3-ylsulfonyl)-3-(2-morpholinopyridin-3-yl)-2-(2H-tetrazol-5-yl) benzenesulfonamide] | 14.9 nM | 0.901 nM | 0.337 nM | 6.25 µM | 12.5 µM | 12.5 µM | 100 µM | 32.00 | 3.125 µM |  |  |  |  |
| NCCS(=O)(=O)c1ccc(-c2cccc3[nH]c(C(F)(F)CN)nc23)c(-c2nn[nH]n2)c1S(N)(=O)=O [Example 307, 3-(2-(2-amino-1,1-difluoroethyl)-1H-benzo[d]imidazol-4-yl)-6-((2-aminoethyl)sulfonyl)-2-(2H-tetrazol-5-yl) benzenesulfonamide] | 0.0868 nM | 0.0372 nM | 0.0306 nM |  |  |  | 0.3906 µM | 1.00 | 0.3906 µM | 0.7813 µM | 0.7813 µM | 0.7813 µM |  |
